According to PMC12373846, “Hemoglobin as a pseudoperoxidase and drug target for oxidative stress-related diseases” (Signal Transduction and Targeted Therapy, 2025):
Where two headings read alike, the source gives them in different places.

What was measured:
[1] = biological target: T1, HRP (Armoracia rusticana, UniProt P00433); experiment: ROS-Glo H2O2 assay with HRP; assay type: biochemical, horseradish; conditions: for fold change in H2O2 decomposition by HRP: 30-min window, Fig. 2b
T1 sequence (P00433 31-353): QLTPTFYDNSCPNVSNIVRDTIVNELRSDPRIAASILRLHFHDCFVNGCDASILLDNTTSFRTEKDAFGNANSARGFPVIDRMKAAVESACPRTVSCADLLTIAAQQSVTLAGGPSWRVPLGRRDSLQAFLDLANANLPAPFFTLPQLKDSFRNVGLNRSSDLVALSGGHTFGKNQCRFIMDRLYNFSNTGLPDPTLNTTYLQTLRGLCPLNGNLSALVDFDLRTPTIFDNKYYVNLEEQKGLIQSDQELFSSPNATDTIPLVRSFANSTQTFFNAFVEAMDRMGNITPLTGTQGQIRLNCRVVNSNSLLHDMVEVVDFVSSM
Description: Hb (Sigma‒Aldrich, H7379), H2O2 (Sigma‒Aldrich, H1009), and Amplex Red reagents (Invitrogen, A12222) were obtained for the study. A 4 μM H2O2 solution was prepared in 50 mM sodium phosphate buffer (pH 7.2). Then, 49 μl of this mixture was mixed with 1 μl of the test compound in DMSO or distilled water. The mixture was combined with an assay mixture of Amplex Red reagent (20 mM stock to 0.1 mM) and HRP (200 U/ml stock to 0.2 U/ml) and added to the wells at 50 μl/well. After a 60-min incubation at 37 °C, resorufin production was quantified via a microplate fluorescence reader (SpectraMax iD5, Molecular Devices) at ex/em = 535/580 nm. […] For the ROS-Glo assay, the H2O2 substrate solution and ROS-Glo detection solution were prepared according to the manufacturer’s instructions. 10 μM H2O2 and drugs were prepared as in the Amplex Red assay, with HRP, Hb, CAT, or GPx added as needed. The mixture was added to the wells at 100 μl/well and incubated for 60 min at 37 °C. H2O2 substrate solution was added, and the mixture was incubated at room temperature for 30 min. After the H2O2 substrate solution was added and incubated at room temperature for 30 min, the ROS-Glo detection solution was added, and the mixture was incubated for 15 min. Luminescence was measured via iD5 microplate readers. […] The U/ml was calculated on the basis of the amount of H2O2 reduced by Hb during the reaction, using μg/ml and U/mg.
To evaluate the extent of peroxidase function facilitation by HTPEB (1 μM) and KDS12025 (1 μM) in HRP (0.2 U/ml) and Hb (10 μg/ml), we used the ROS-Glo assay over 30 and 60 min. The fold change was calculated by dividing the delta values during the 30-min reaction for the vehicle over drug conditions.

[2] = tested on: GPx; experiment: GPx colorimetric assay; assay type: biochemical; conditions: standard GPx assay
Description: To assess the GPx activity, the reaction was prepared in a 96-well plate by adding glutathione reductase and glutathione solution, GPx enzyme (5µl, final concentration 60 U/ml), and the drug (1 µl of KDS12025 and HTEPB) to a total volume of 100 µl per well, followed by manufactural protocol (Abcam, ab102530). The plate was incubated at room temperature for 15 min to allow pre-reactions and drug interactions to occur. Following the incubation, the reaction was initiated by adding cumene hydroperoxide as the substrate to each well. The absorbance at 340 nm was measured in kinetic mode for 10–20 min, and the rate of NADPH consumption was used to calculate GPx activity, reflecting the enzyme’s ability to reduce the hydroperoxide substrate in the presence of the test compound.

[3] = DPPH radical scavenging assay; conditions: Fig. S1e
Description: In a 96-well microplate, samples (20 μl) at concentrations ranging from 0.1 to 100 μM were mixed with 80 μL of 50 mM sodium phosphate buffer (pH 7.2) and 100 μL of DPPH (1,1-diphenyl-2-picrylhydrazyl) solution (250 μM in methanol) and incubated for 30-min in the dark. Each sample was quantified using a microplate fluorescence reader (SpectraMax iD5, Molecular Devices) at absorbance (517 nm). Edaravone was used as a positive control. The radical scavenging activity was estimated using the following equation: sample absorbance / control absorbance ×100. The dose-response curve, EC50 for the DPPH, was calculated and determined by fitting data with GraphPad Prism software. The fitting method had no special handling of outliers.

[4] = tested on: CAT; experiment: Bubbling liberation (oxygen release) with CAT; assay type: biochemical; conditions: CAT + H2O2, Fig. 2g
Description: (§1) The effects of bubbling with DMSO, HTPEB, and KDS12025 were evaluated. To measure the degree of bubbling quantitatively, the reactions were conducted in sealed tubes connected to an inverted cylinder submerged in a water bath to record the time and volume of the bubbles produced. […] Vehicle, HTPEB, and KDS12025 were added to assess their effects. A similar procedure was followed for Hb.

[5] = biological target: T1, HRP; experiment: Bubbling liberation (oxygen release) with HRP; assay type: biochemical, horseradish; conditions: HRP + H2O2, Fig. 2g
Description: as §1

[6] = biological target: T2, Hb (Homo sapiens, UniProt P68871); experiment: Bubbling liberation (oxygen release) with Hb; assay type: biochemical; conditions: Hb + H2O2, Fig. 2g
T2 construct: purchased Sigma-Aldrich H7379
Description: as §1

[7] = PAMPA BBB permeability; assay type: in vitro ADME; conditions: for Papp at 4 h, 50 μM: PAMPA, pH 7.4, 50 μM
Description: A parallel artificial membrane permeability assay (PAMPA)^70 was performed to validate the blood-brain barrier permeability of KDS12025. The procedure began by preparing a donor solution of the compound in a pH 7.4 donor buffer. This solution was added to the wells of a deep well plate, followed by the addition of a high-sensitivity UV plate filled with donor buffer to serve as the blank sample. An initial sample for the UV plate was taken to establish a baseline reading. The PAMPA sandwich was then assembled by adding the donor plate mixture to the donor plate well, followed by placing a BBB-lipid coated membrane on top and an acceptor plate filled with acceptor buffer. This setup was incubated at 25 °C for a specific duration to allow diffusion. Post-incubation, a sample from the acceptor plate was taken, and the UV absorbance was measured to determine the permeated amount of the test compound. The permeability was then calculated using the PAMPA explorer program, considering the initial donor concentration and the acceptor's concentration after incubation.

[8] = Solubility in aqueous solutions (statement); assay type: physicochemical
[9] = read-out: BCS code: permeability classification

T2 sequence (P68871 2-147 limits assumed): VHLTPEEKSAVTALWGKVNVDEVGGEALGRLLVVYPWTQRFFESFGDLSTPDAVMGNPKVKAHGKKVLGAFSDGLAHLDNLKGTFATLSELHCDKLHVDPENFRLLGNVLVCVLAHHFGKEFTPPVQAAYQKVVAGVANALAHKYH
T2 sequence (P69905 2-142 partner limits assumed): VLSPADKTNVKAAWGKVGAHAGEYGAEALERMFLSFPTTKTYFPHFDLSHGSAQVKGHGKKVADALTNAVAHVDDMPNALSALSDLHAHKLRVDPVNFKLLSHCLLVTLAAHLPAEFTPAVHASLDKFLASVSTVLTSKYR

EC50 ([1]; Fig. 1e, read-out: EC50, ROS-Glo assay with replenishing HRP) [nM]	tau value, reaction time-response of HRP with HTPEB ([1]; Fig. S1b) [min]	Pe (PAMPA BBB permeability) ([7]; 50 μM, 4 h, U.V)	Structure (SMILES)	fold change in H2O2 decomposition by HRP [1]	effect on GPx activity [2]	IC50 [3] [µM]	bubbles per 1 × 1 mm^2 area [4]	bubbles per 1 × 1 mm^2 area [5]	bubbles per 1 × 1 mm^2 area [6]	BCS code: CNS +/- classification ([7]; 50 μM, 4 h)	Papp at 4 h, 50 μM [7, 9] [×10⁻⁶ cm/s]	solubility in water / aqueous solutions [8]	Papp at 4 h, 50 μM ([7]; U.V, read-out: Pe (PAMPA BBB permeability)) [×10⁻⁶ cm/s]
2500	8.57	3.56 10^-6cm/sec	O=C(O)c1cc(NCCc2ccc(C(F)(F)F)cc2)ccc1O [HTPEB, 2-hydroxy-5-[2-(4-trifluoromethyl-phenyl)-ethylamino]-benzoic acid, reference compound]	3.769±0.7911	no enhancement	19.2	84.5±9.957	9.0±1.0	12.5±3.969	- (< 10)	> 0.4	poor	
			CNc1ccc(NCCc2ccccc2OC)cc1.Cl [KDS12025, N^1-(2-methoxyphenethyl)-N^4-methylbenzene-1,4-diamine hydrochloride salt]	5.642±0.5747	did not affect other peroxidases	155	92.0±6.622	7.3±0.947	13.5±2.533	+ (> 10)	> 0.4	highly water soluble	67.4
